Key:
[1] = biological target: Receptor-type tyrosine-protein kinase FLT3 (Homo sapiens) (UniProt P36888); assay: Inhibition of human Flt3 using EAIYAAPFAKKK peptide substrate assessed as active kinase incubated for 40 mins in presence of [gamma33P]ATP at 1000 nM by scintillation counting based radiometry assay relative to control; design: scale not given: the % may be the effect or the level left
[2] = Inhibition of MDP-stimulated TNFalpha production in mouse RAW264.7 cells at 100 nM incubated for 22 hrs by ELISA relative to control; assay type: functional
[3] = biological target: T1, Receptor-interacting serine/threonine-protein kinase 1 (Homo sapiens) (UniProt Q13546); assay: Inhibition of human RIPK1 assessed as active kinase incubated for 120 mins in presence of [gamma33P]ATP at 1000 nM by scintillation counting based radiometry assay relative to control; design: scale not given: the % may be the effect or the level left
T1 sequence (whole entry): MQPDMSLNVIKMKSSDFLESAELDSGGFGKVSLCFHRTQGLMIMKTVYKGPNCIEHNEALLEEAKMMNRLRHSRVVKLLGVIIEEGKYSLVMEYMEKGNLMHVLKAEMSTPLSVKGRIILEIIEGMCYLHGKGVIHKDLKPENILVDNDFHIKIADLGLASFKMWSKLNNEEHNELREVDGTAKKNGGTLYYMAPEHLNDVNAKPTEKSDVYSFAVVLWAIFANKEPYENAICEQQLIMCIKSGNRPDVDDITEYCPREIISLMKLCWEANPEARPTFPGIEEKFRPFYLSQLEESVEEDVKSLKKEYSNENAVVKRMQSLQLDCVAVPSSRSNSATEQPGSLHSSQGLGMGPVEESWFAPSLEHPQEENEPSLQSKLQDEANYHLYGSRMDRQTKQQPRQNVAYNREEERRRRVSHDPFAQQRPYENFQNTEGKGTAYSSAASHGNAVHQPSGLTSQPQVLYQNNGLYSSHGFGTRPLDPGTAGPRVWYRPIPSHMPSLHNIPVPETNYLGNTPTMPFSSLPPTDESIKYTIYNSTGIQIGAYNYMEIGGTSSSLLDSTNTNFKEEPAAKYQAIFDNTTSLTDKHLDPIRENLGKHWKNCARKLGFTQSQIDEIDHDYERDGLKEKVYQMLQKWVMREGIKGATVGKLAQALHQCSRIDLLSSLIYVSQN

[4] = biological target: Receptor-interacting serine/threonine-protein kinase 2 (Homo sapiens, UniProt O43353); assay: Inhibition of human RIPK2 incubated for 120 mins in presence of [gamma33P]ATP by scintillation counting based radiometry assay
Chain of Receptor-interacting serine/threonine-protein kinase 2 (O43353 whole entry): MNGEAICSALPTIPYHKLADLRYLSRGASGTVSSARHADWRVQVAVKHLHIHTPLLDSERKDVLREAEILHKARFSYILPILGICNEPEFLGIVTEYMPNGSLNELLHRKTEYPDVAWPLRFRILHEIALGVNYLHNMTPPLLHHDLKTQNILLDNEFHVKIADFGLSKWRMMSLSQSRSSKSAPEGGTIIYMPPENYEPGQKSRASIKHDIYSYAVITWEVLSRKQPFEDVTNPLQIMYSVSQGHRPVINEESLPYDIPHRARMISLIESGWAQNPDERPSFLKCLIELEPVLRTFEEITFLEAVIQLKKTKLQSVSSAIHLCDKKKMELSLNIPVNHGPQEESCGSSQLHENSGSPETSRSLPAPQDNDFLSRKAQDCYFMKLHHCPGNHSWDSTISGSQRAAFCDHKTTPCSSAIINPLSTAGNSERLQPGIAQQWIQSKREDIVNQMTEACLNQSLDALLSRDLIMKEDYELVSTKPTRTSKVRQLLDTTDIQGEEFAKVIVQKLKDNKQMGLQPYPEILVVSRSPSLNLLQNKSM

[5] = Toxicity in rat H9c2 cells assessed as inhibitory rate at 10 uM relative to control; assay type: cell-based
[6] = Metabolic stability in human liver microsomes assessed as half life at 1 uM by LC/MS/MS analysis; assay type: ADME, Microsome
[7] = Inhibition of LPS/MDP-stimulated TNFalpha production in C57BL/6J mouse BMDM cells by ELISA relative to control; assay type: functional, cell-based

Chain of Receptor-type tyrosine-protein kinase FLT3 (Homo sapiens) (P36888 whole entry): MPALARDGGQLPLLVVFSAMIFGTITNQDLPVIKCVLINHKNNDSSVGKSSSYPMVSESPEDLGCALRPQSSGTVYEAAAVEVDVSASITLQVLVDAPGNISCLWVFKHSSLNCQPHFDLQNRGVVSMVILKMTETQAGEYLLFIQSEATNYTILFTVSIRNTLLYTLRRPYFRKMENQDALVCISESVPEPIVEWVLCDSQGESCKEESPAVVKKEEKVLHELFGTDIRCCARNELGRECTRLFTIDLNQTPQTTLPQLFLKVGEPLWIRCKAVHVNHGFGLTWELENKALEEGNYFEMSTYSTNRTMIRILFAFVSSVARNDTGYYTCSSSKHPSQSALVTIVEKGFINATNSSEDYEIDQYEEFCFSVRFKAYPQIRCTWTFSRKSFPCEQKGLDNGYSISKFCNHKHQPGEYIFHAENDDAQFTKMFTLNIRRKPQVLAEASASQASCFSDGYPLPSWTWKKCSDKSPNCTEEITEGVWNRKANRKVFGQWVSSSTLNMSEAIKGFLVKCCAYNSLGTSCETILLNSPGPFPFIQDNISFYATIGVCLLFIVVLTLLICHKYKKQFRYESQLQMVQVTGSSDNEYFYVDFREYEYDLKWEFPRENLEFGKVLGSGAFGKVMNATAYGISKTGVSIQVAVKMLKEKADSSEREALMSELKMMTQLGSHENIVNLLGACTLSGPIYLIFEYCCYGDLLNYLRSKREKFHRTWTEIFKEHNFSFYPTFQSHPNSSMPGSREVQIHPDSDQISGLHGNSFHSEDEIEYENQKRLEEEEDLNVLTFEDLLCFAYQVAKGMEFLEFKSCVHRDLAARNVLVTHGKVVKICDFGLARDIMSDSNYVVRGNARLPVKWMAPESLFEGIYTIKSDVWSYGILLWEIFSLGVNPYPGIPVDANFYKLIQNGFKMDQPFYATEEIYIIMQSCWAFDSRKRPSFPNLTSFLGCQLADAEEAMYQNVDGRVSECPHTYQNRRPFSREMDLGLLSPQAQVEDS

Compound | Activity [1] | inhibition at 0.1 µM [2] | Activity [3] | IC50 [4] | inhibition at 10 µM [5] | half-life at 1 µM [6] | IC50 [7]
COc1ccc(-c2cn([C@H]3CC[C@@H](NC(C)=O)CC3)c3ncnc(N)c23)cc1 | 57% | 27% | 80% | 11.7 nM | – | – | –
CC(C)c1ccc(-c2cn([C@H]3CC[C@@H](N)CC3)c3ncnc(N)c23)cc1 | – | -52% | 95% | – | – | – | –
CCOc1ccc(-c2cn([C@H]3CC[C@@H](N)CC3)c3ncnc(N)c23)cc1 | – | -15% | 98% | – | – | – | –
Nc1ncnc2c1c(-c1cccc(Cl)c1)cn2[C@H]1CC[C@@H](N)CC1 | – | 84% | 116% | 5.9 nM | 98% | > 120 min | –
Nc1ccc(-c2cn([C@H]3CC[C@@H](N)CC3)c3ncnc(N)c23)cc1 | – | 22% | 100% | – | – | – | –
Cc1cccc(-c2cn([C@H]3CC[C@@H](N)CC3)c3ncnc(N)c23)c1 | – | 83% | 105% | 10.7 nM | 18% | 23.7 min | –
CC(C)Cc1ccc(-c2cn([C@H]3CC[C@@H](N)CC3)c3ncnc(N)c23)cc1 | – | -23% | 117% | – | – | – | –
Nc1ncnc2c1c(-c1ccsc1)cn2[C@H]1CC[C@@H](N)CC1 | – | 16% | 99% | – | – | – | –
C=CCN[C@H]1CC[C@@H](n2cc(-c3ccc(OC)cc3)c3c(N)ncnc32)CC1 | 58% | 76% | 85% | 5.2 nM | – | 6.3 min | –
CC(C)(C)c1ccc(-c2cn([C@H]3CC[C@@H](N)CC3)c3ncnc(N)c23)cc1 | – | -40% | 93% | – | – | – | –
COc1ccc(-c2cn([C@H]3CC[C@@H](NC(=O)c4cc(OC)c(OC)c(OC)c4)CC3)c3ncnc(N)c23)cc1 | 85% | 49% | 87% | 3.9 nM | – | – | –
COc1ccc(-c2cn([C@H]3CC[C@@H](NCc4cccc(OC(F)(F)F)c4)CC3)c3ncnc(N)c23)cc1 | 86% | 54% | 105% | 18.5 nM | – | – | –
Cc1ccc(-c2cn([C@H]3CC[C@@H](N)CC3)c3ncnc(N)c23)cc1F | – | – | – | – | – | 26.9 min | –
CCCC(=O)N[C@H]1CC[C@@H](n2cc(-c3ccc(OC)cc3)c3c(N)ncnc32)CC1 | 49% | 31% | 72% | 6 nM | – | – | –
Nc1ncnc2c1c(-c1ccc(O)cc1)cn2[C@H]1CC[C@@H](N)CC1 | – | 75% | 96% | 6.3 nM | 61% | 133 min | –
COc1ccc(-c2cn([C@H]3CC[C@@H](NCc4ccccc4)CC3)c3ncnc(N)c23)cc1 | 70% | 76% | 94% | 3 nM | – | 1.6 min | –
Cc1ccccc1-c1cn([C@H]2CC[C@@H](N)CC2)c2ncnc(N)c12 | – | 88% | 99% | 7.9 nM | 54% | > 120 min | –
COc1ccc(-c2cn([C@H]3CC[C@@H](NC(=O)C(C)(C)C)CC3)c3ncnc(N)c23)cc1 | 47% | 45% | 77% | 15.6 nM | – | – | –

Compound | Activity [1] | inhibition at 0.1 µM [2] | Activity [3] | IC50 [4] | inhibition at 10 µM [5] | half-life at 1 µM [6] | IC50 [7]
Nc1ccccc1-c1cn([C@H]2CC[C@@H](N)CC2)c2ncnc(N)c12 | – | -35% | 112% | – | – | – | –
Nc1ncnc2c1c(-c1ccc(F)cc1)cn2[C@H]1CC[C@@H](N)CC1 | – | 72% | 125% | 1.6 nM | 35% | > 120 min | 1.7 nM
Nc1cccc(-c2cn([C@H]3CC[C@@H](N)CC3)c3ncnc(N)c23)c1 | – | 16% | 98% | – | – | – | –
COc1ccc(-c2cn([C@H]3CC[C@@H](NS(=O)(=O)C(F)(F)F)CC3)c3ncnc(N)c23)cc1 | 55% | -2% | 73% | 21.1 nM | – | – | –
Cc1ccc(-c2cn([C@H]3CC[C@@H](N)CC3)c3ncnc(N)c23)cc1C | – | – | – | – | – | 22.4 min | –
Nc1ncnc2c1c(-c1ccccc1)cn2[C@H]1CC[C@@H](N)CC1 | – | 70% | 104% | 9 nM | 44% | 148 min | –
Cc1ccc(-c2cn([C@H]3CC[C@@H](N)CC3)c3ncnc(N)c23)cc1 | – | 99% | 114% | 2.4 nM | 28% | 27.4 min | –
Nc1ncnc2c1c(-c1ccoc1)cn2[C@H]1CC[C@@H](N)CC1 | – | 13% | 101% | – | – | – | –
Nc1ncnc2c1c(-c1cccc(F)c1)cn2[C@H]1CC[C@@H](N)CC1 | – | 71% | 115% | 6.4 nM | 50% | 107 min | –
Nc1ncnc2c1c(-c1ccc3c(c1)OCO3)cn2[C@H]1CC[C@@H](N)CC1 | – | 68% | 119% | 0.8 nM | 64% | > 120 min | –
COc1ccc(-c2cn([C@H]3CC[C@@H](NC(=O)C(C)Cl)CC3)c3ncnc(N)c23)cc1 (some centres undefined) | 63% | 51% | 82% | 16.7 nM | – | – | –
Nc1ncnc2c1c(-c1cc(F)cc(F)c1)cn2[C@H]1CC[C@@H](N)CC1 | – | 56% | 114% | – | – | – | –
Cc1ccc(-c2cn([C@H]3CC[C@@H](N)CC3)c3ncnc(N)c23)cc1Cl | – | – | – | – | – | 28.2 min | –
CCc1ccc(-c2cn([C@H]3CC[C@@H](N)CC3)c3ncnc(N)c23)cc1 | – | 46% | 97% | – | – | – | –
COc1ccc(-c2cn([C@H]3CC[C@@H](NCC#N)CC3)c3ncnc(N)c23)cc1 | 46% | 62% | 99% | 6.7 nM | – | 2.7 min | –
Nc1ccc(-c2cn([C@H]3CC[C@@H](N)CC3)c3ncnc(N)c23)cc1F | – | 72% | 112% | 4 nM | 82% | 69.3 min | –
CCC(=O)N[C@H]1CC[C@@H](n2cc(-c3ccc(OC)cc3)c3c(N)ncnc32)CC1 | 54% | 53% | 77% | 10.8 nM | – | – | –
COc1ccc(-c2cn([C@H]3CC[C@@H](N)CC3)c3ncnc(N)c23)cc1 | 68% | 69% | 97% | 4.2 nM | – | 108 min | 3.8 nM
